{"source": "patent US9809521B2", "about": "“Cannabidinoid derivatives” (priority 2011, dated 2017)", "key": {"Id-1": {"system": "Id-1", "assay": "Quantitative Western analysis of Id-1 expression in different types of cancer cells", "assay_type": "cell-based", "description": "Quantitative Western analysis of Id-1 expression in different types of cancer cells with or without CBD treatment. Quantitative Western analysis was performed to examine whether CBD would downregulate Id-1 protein expression in cell lines for breast, prostate, salivary gland, head and neck, and glioblastoma cell lines. […] For the salivary gland cancer cell line, ACCM, a higher concentration of CBD (2.5 μM) was required to see a significant downregulation in Id-1 expression (FIG. 13, panel C (left))."}, "[1]": {"system": "SAS, HSC-2, ACCM and ACC2 cells", "assay": "Head and neck and salivary gland cancer cells: Id-1 expression, viability, invasiveness", "assay_type": "cell-based", "description": "Measuring the effect of CBD on the aggressiveness of head and neck as well as salivary gland cancer cells. Head and neck cancer cell lines (SAS and HSC-2 in the upper panels) and salivary gland cancer cell lines (ACCM and ACC2 in the lower panels) were treated with CBD."}, "U251 GBM cells": {"system": "U251 GBM cells", "assay": "Viability assay, combination with Temozolomide", "assay_type": "cell-based, human", "description": "Viability Assays using drug combinations and statistical analysis: Multiple viability assays in a 96 well format were run for each compound and the average percent inhibition of cell viability was calculated and transformed to fraction affected (Fa) i.e., percent inhibitory effect. Additional CI values and a dose reduction index (DRI) were also calculated using Compusyn software. After determining the (IC50/Fa0.5) values of the drugs individually, components were then combined at the following concentration ranges: controls, 0.125×IC50, 0.25×IC50, 0.5×IC50 and a combination index was calculated where CI<1, =1, and >1 indicate synergism, additive effect, and antagonism, respectively.\nCell viability studies with U251 GBM cells using CBD in combination with Temozolomide. […] The concentration response curves were first generated for temozolomide, CBD alone, and a combination of CBD and temozolomide (FIG. 16, panel A). The inhibitory values from the concentration response curves were then used to calculate combination index (CI) values at multiple combination ratios (FIG. 16, panel B). From which, the data was also used to calculate (i) IC50 values, the slope of the curve (m) and a goodness of fit value (r)."}, "Id-1 gene": {"system": "Id-1 gene", "assay": "PCR of Id-1 mRNA expression in MDA-MB231 cells", "assay_type": "cell-based, human", "description": "Polymerase Chain Reaction: Total cellular RNA was isolated from breast cancer cells treated with vehicle control or with CBD. Transcripts for Id-1 and for β-actin were reverse transcribed using SuperscriptII Reverse TranscriptaseII (Gibco-BRL), and polymerase chain reaction performed. The 5′ and 3′ PCR primers were […] (SEQ ID NO:1) and […] (SEQ ID NO:2) for Id-1; and […] (SEQ ID NO:3) and […] (SEQ ID NO:4) for β-actin. PCR was performed in buffer containing 1 μM of each of the 5′ and 3′ PCR primer and 0.5 U of Taq polymerase using 25 cycles for amplification of Id-1 and β-actin cDNAs. The cycle conditions were 45 sec denaturation at 94° C., 45 sec annealing at 55° C., and 1 min extension at 72° C.\nGene Expression Assays looking at Id-1 gene epression with CBD in MDA-MB231 cells. […] To determine if this effect was due to the inhibition of transcription, a construct was used that contained the Id-1 promoter fused to a luciferase reporter in a PGL-3 basic vector. This construct was transiently transfected into MDA-MB231 cells. Twenty-four hours after transfection, MDA-MB231-Id-1-luc cells were treated with CBD for 2 or 3 days and luciferase activity was measured (FIG. 3, panel B and panel C). […] These findings correlated to the data obtained when the expression of the Id-1 protein was assessed by Western analysis."}}}
{"compound": "C=C(C)[C@@H]1CCC(C)=C[C@H]1c1c(O)cc(CCCCC)cc1O", "note": "[CBD, cannabidiol]", "values": [{"measurement": "Id-1 protein expression in MDA-MB231, MDA-MB436, PC3, DU145, SAS, U251 and SF126", "setting": "Id-1; 1.5 μM", "value": "significant inhibition of Id-1 protein expression"}, {"measurement": "concentration required for significant downregulation in Id-1 expression, ACCM", "setting": "Id-1; salivary gland cancer cell line ACCM", "value": 2.5, "unit": "µM"}, {"measurement": "ACCM tumor cell viability and invasiveness", "setting": "[1]", "value": "significant effect on ACCM tumor cell viability and invasiveness"}, {"measurement": "Id-1 gene expression in SAS, HSC-2, ACCM, ACC2", "setting": "[1]", "value": "downregulated in all cell lines"}, {"measurement": "SAS tumor cell viability and invasiveness", "setting": "[1]", "value": "significant effect on SAS tumor cell viability and invasiveness"}, {"measurement": "interaction with Temozolomide (combination index)", "setting": "U251 GBM cells", "value": "acts synergistically with Temozolomide"}, {"measurement": "Id-1 mRNA expression", "setting": "Id-1 gene", "value": "significantly reduced"}]}
